Results reported in paper PMC5020642, “Structural insight into the arginine-binding specificity of CASTOR1 in amino acid-dependent mTORC1 signaling” (Cell Discovery, 2016).

Legend:
CASTOR1 [1] = biological target: T1, CASTOR1 (Homo sapiens, UniProt Q8WTX7, L113A); experiment: isothermal titration calorimetry; assay type: binding
T1 construct: full-length, residues 1-329, C-terminal His6 tag (pET-28a), E. coli BL21(DE3), homodimer in solution; Ni-NTA and gel filtration
T1 sequence (Q8WTX7 1-329 L113A): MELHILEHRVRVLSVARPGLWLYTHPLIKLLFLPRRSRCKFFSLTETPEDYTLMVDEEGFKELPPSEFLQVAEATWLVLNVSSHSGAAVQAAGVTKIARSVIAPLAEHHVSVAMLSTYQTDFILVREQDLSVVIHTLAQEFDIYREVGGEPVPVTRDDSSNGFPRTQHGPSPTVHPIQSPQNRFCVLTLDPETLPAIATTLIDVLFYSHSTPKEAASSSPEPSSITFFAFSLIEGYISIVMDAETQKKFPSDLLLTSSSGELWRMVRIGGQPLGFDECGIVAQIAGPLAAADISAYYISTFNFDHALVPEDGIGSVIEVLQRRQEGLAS
Source text: (§1) isothermal titration calorimetry on CASTOR1

CASTOR1 [2] = biological target: T2, CASTOR1 (Homo sapiens, UniProt Q8WTX7, F303A); experiment: isothermal titration calorimetry; assay type: binding
T2 construct: full-length, residues 1-329, C-terminal His6 tag (pET-28a), E. coli BL21(DE3), homodimer in solution; Ni-NTA and gel filtration
T2 sequence (Q8WTX7 1-329 F303A): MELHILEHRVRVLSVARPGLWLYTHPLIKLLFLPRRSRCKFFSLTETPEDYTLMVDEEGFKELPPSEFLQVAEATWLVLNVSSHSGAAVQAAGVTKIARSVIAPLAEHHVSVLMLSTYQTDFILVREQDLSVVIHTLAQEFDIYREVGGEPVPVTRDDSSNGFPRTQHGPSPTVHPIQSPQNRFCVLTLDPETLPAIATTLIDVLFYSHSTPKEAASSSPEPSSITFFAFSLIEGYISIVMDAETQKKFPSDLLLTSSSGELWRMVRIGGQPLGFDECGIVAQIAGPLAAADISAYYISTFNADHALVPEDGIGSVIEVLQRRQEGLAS
Source text: as §1

CASTOR1 [3] = biological target: T3, CASTOR1 (Homo sapiens, UniProt Q8WTX7, V281A); experiment: isothermal titration calorimetry; assay type: binding
T3 construct: full-length, residues 1-329, C-terminal His6 tag (pET-28a), E. coli BL21(DE3), homodimer in solution; Ni-NTA and gel filtration
T3 sequence (Q8WTX7 1-329 V281A): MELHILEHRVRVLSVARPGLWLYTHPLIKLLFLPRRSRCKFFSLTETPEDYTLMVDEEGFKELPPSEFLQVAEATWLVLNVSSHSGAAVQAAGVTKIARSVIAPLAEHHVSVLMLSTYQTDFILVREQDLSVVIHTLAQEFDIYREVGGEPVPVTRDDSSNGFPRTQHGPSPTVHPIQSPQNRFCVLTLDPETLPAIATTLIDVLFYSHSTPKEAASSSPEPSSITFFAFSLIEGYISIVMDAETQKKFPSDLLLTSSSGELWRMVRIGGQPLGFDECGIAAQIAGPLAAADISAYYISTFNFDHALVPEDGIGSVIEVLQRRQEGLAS
Source text: as §1

A^2A^1A^2A^1 = biological target: T4, A^2A^1A^2A^1; experiment: isothermal titration calorimetry; assay type: binding, Homo sapiens; conditions: 20 °C; 1 mM ligand titrated into 70 μM protein; single-site model
T4 construct: gene CASTOR2; one polypeptide: CASTOR2 with ACT2 and ACT4 replaced by those of CASTOR1 (CASTOR1 residues 1-5, 76-147, 176-179, 263-329); E. coli
Source text: isothermal titration calorimetry on A^2A^1A^2A^1

CASTOR1 [4] = biological target: T5, CASTOR1 (Homo sapiens, UniProt Q8WTX7); experiment: isothermal titration calorimetry; assay type: binding
T5 construct: full-length, residues 1-329, C-terminal His6 tag (pET-28a), E. coli BL21(DE3), homodimer in solution; Ni-NTA and gel filtration
T5 sequence (Q8WTX7 1-329): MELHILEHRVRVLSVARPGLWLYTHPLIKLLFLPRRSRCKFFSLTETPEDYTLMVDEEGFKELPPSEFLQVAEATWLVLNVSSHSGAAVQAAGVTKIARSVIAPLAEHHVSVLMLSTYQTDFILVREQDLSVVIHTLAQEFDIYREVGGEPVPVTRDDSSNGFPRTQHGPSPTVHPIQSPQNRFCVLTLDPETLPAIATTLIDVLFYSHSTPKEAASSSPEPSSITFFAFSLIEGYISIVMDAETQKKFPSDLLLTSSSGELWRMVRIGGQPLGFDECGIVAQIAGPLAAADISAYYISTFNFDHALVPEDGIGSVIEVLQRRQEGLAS

A^2A^1A^2A^2 = biological target: T6, A^2A^1A^2A^2; experiment: isothermal titration calorimetry; assay type: binding, Homo sapiens; conditions: 20 °C; 1 mM ligand titrated into 70 μM protein; single-site model
T6 construct: gene CASTOR2; one polypeptide: CASTOR2 with ACT2 replaced by ACT2 of CASTOR1 (ACT2 of CASTOR1 = residues 1-5 and 76-147); E. coli
Source text: isothermal titration calorimetry on A^2A^1A^2A^2

A^2A^2A^2A^1 = biological target: T7, A^2A^2A^2A^1; experiment: isothermal titration calorimetry; assay type: binding, Homo sapiens; conditions: 20 °C; 1 mM ligand titrated into 70 μM protein; single-site model
T7 construct: gene CASTOR2; one polypeptide: CASTOR2 with ACT4 replaced by ACT4 of CASTOR1 (ACT4 of CASTOR1 = residues 176-179 and 263-329); E. coli
Source text: isothermal titration calorimetry on A^2A^2A^2A^1

[5] = biological target: the molecule itself; experiment: SEC + other: dynamic light scattering; purified recombinant proteins in solution; CASTOR1 with and without arginine (dimerization independent of arginine); the CASTOR1-CASTOR2 complex analysed after co-purification

How did the Kd (CASTOR1 [1]) turn out when `N=C(N)NCCC[C@H](N)C(=O)O` [arginine] was run?
The Kd was 160 ± 23.6 µM.

What about the Kd (CASTOR1 [2]) of the same molecule?
Its Kd is 17.6 ± 1.9 µM.

What about the Kd (CASTOR1 [3]) of the same molecule?
The Kd was 25.6 ± 4.3 µM.

What about the Kd (A^2A^1A^2A^1) of the same molecule?
The Kd was 8.6 ± 1.9 µM.

What about the Kd (CASTOR1 [4]) of the same molecule?
The Kd was 5.5 ± 0.4 µM.

What about the Kd (A^2A^1A^2A^2) of the same molecule?
Its Kd is 55 ± 11.5 µM.

And the Kd (A^2A^2A^2A^1)?
Its Kd is 40.2 ± 8.4 µM.

B1: CASTOR2, His6-SUMO fusion (natural protein, human, UniProt A6NHX0 1-329, looked up)
chain: MELHILEHRLQVASVAKESIPLFTYGLIKLAFLSSKTRCKFFSLTETPEDYTIIVDEEGFLELPSSEHLSVADATWLALNVVSGGGSFSSSQPIGVTKIAKSVIAPLADQNISVFMLSTYQTDFILVRERDLPFVTHTLSSEFTILRVVNGETVAAENLGITNGFVKPKLVQRPVIHPLSSPSNRFCVTSLDPDTLPAVATLLMDVMFYSNGVKDPMATGDDCGHIRFFSFSLIEGYISLVMDVQTQQRFPSNLLFTSASGELWKMVRIGGQPLGFDECGIVAQISEPLAAADIPAYYISTFKFDHALVPEENINGVISALKVSQAEKH
notes: CASTOR2, human; Homodimer on its own; in the co-expressed complex with m3 it stands once (heterodimer); Purification of the co-expressed complex is said to be the same as for CASTOR1 (Ni-NTA), so the tag would be the handle there; also called His6-SUMO fused castor2; source: E. coli BL21 (DE3), purified (Ni-NTA, gel filtration); also co-expressed with untagged CASTOR1 in E. coli BL21 (DE3)
For B1, which “stoichiometry N” value [5] is on record?
Its value is 2.

B2: full-length human CASTOR1 (residues 1-329), His6-tagged (natural protein, UniProt Q8WTX7 1-329, looked up)
chain: MELHILEHRVRVLSVARPGLWLYTHPLIKLLFLPRRSRCKFFSLTETPEDYTLMVDEEGFKELPPSEFLQVAEATWLVLNVSSHSGAAVQAAGVTKIARSVIAPLAEHHVSVLMLSTYQTDFILVREQDLSVVIHTLAQEFDIYREVGGEPVPVTRDDSSNGFPRTQHGPSPTVHPIQSPQNRFCVLTLDPETLPAIATTLIDVLFYSHSTPKEAASSSPEPSSITFFAFSLIEGYISIVMDAETQKKFPSDLLLTSSSGELWRMVRIGGQPLGFDECGIVAQIAGPLAAADISAYYISTFNFDHALVPEDGIGSVIEVLQRRQEGLAS
notes: CASTOR1, human, full length, residues 1-329; Cloned in pET-28a (NcoI/XhoI); Se-Met substituted protein was used for phasing; No removal of the His6 tag is described; also called recombinant CASTOR1; source: E. coli BL21 (DE3), purified (Ni-NTA, gel filtration on Superdex 200)
B2 was tested. Which “stoichiometry N” value [5] did it give?
Its value is 2.
